Test results: US9029553B2, “2-anilino nicotinyl linked 2-amino benzothiazole conjugates and process for the preparation thereof” (Council of Scientific & Industrial Research, priority 2011, dated 2015)
Entries after “also recorded” stand apart in the source; their conditions may differ.

Columns and labels:
HL-60 cells [1] = assay: Annexin V-FITC flow cytometric analysis of apoptosis and necrosis; type: cell-based, human; details: 1 μM, 24 h
Procedure: During apoptosis an important biochemical change that take place in cells undergoing is flipping of phosphatidyl serine lipid from the inner leaflet of the cellular membrane to the outer one.
Annexin V a calcium dependent phospholipids binding protein has a high affinity for PS. […] Compounds 4-8 at 1 μM were treated with HL-60 cells were incubated for 24 h and the extent of apoptosis vs. necrosis was analyzed from the quadrant analysis of cell population with Annexin V-FITC. Both the apoptotic and post apoptotic cell populations increased in HL-60 cells.

PC-3 cells = assay: Fluorescent microscopic (DAPI) analysis of cell death; type: cell-based, human; details: PC-3, 1 μM, 24 h
Procedure: (§1) The mechanism of cell death was also studied in HL-60 and PC-3 cells by fluorescent microscopic studies. The PC-3 cells were treated with compd. 8 as in case of HL-60 cells. For fluorescent DAPI staining, air dried smears of cells on glass slides were fixed in absolute methanol at −20° C. for 20 min and stained with DAPI (Sigma) at 1 μg/ml at room temperature for 20 min in the dark and mounted with 90% glycerol in PBS and observed under fluorescent microscope (Olympus).
(§2) Morphological changes of HL-60 and PC-3 cells in response to this compound 8 were observed. The untreated cells were having large sized nuclei.

HL-60 = assay: as above; type: cell-based, human; details: HL-60, 1 μM, 24 h, data not shown
Procedure: as §1, §2

[2] = system: normal monkey kidney CV-1 cells; assay: MTT cytotoxicity in normal cells; type: cell-based; details: Primates
Procedure: These compounds were also evaluated for their cytotoxic potential in normal cells and for these purpose their IC50 value were also determine in normal monkey kidney CV-1 cells by using MTT method. The ratios of normal to cancer cells IC50 value were ranges from 10-1000 times (Table 5).

MCF-7 = assay: SRB percentage growth inhibition (NCI protocol); type: cell-based; details: Homo sapiens, MCF7, 48 hrs exposure
Procedure: (§3) 2-Anilino nicotinyl linked 2-amino benzothiazoles conjugates of formula 4-8 have been tested against ten and eleven human cancer cell lines for 10 and 1 μM respectively derived from nine cancer types (leukemia, non-small cell lung cancer, colon cancer, CNS cancer, melanoma, ovarian cancer, renal cancer, prostate cancer and breast cancer) as per NCI protocol. For each compound, percentage of growth inhibition was calculated for individual cell lines at a minimum of two concentrations (1 and 10 μM). A protocol of 48 hrs continuous drug exposure was used, and a sulforhodamine B (SRB) protein assay was used to estimate cell viability or growth. The percentage of growth inhibition compared with the control was calculated in table 1 and table 2.

DU145 = assay: SRB percentage growth inhibition (NCI protocol); type: cell-based; details: Homo sapiens, DU-145, 48 hrs exposure
Procedure: as §3

SK-NS-H = assay: SRB percentage growth inhibition (NCI protocol); type: cell-based; details: Homo sapiens, SK-N-SH, 48 hrs exposure
Procedure: as §3

HEP-2 = assay: SRB percentage growth inhibition (NCI protocol); type: cell-based; details: Homo sapiens, 48 hrs exposure
Procedure: as §3

Sw-620 = assay: SRB percentage growth inhibition (NCI protocol); type: cell-based; details: Homo sapiens, 48 hrs exposure
Procedure: as §3

OVCAR-5 = assay: SRB percentage growth inhibition (NCI protocol); type: cell-based; details: Homo sapiens, 48 hrs exposure
Procedure: as §3

502713 = assay: SRB percentage growth inhibition (NCI protocol); type: cell-based; details: Homo sapiens, 48 hrs exposure
Procedure: as §3

SiHa = assay: SRB percentage growth inhibition (NCI protocol); type: cell-based; details: Homo sapiens, 48 hrs exposure
Procedure: as §3

PC-3 = assay: SRB percentage growth inhibition (NCI protocol); type: cell-based; details: Homo sapiens, 48 hrs exposure
Procedure: as §3

IGR-OV-1 = assay: SRB percentage growth inhibition (NCI protocol); type: cell-based; details: Homo sapiens, IGROV-1, 48 hrs exposure
Procedure: as §3

IMR-32 = assay: SRB percentage growth inhibition (NCI protocol); type: cell-based; details: Homo sapiens, 48 hrs exposure
Procedure: as §3

HCT-15 = assay: SRB percentage growth inhibition (NCI protocol); type: cell-based; details: Homo sapiens, 10 μM, 48 hrs exposure
Procedure: as §3

A549 = assay: SRB percentage growth inhibition (NCI protocol); type: cell-based; details: Homo sapiens, 48 hrs exposure
Procedure: as §3

PARP = assay: Western blot of cell death targets; type: cell-based, human; details: 1 μM, 24 h, HL-60
Procedure: Apoptosis was further characterized by the western blot analysis. Cells were treated with tested compounds at 1 μM for 24 h and expression of key apoptotic proteins like NF-kB, survivin; PARP, Bcl-2 and HSP-90 were analyzed through western blot. Both NF-kB and survivin are highly expressed in HL-60 cells. NF-kB is a transcriptional factor regulating the expression of several genes in the cells whereas survivin is a cell cycle regulated inhibitor of apoptosis protein (IAP), mostly over expressed in most of the tumors.
During apoptotic stimuli activated caspase-3 appears to cause DNA fragmentation through activation of caspase activated DNAse (CAD) in the nucleus of the cells. […] Cancer cells have very high level of heat shock proteins. These are molecular chaperones expressed constitutively under normal conditions to maintain protein homeostasis and are induced upon environmental stress.

HL-60 cells [3] = assay: Cell cycle analysis (FACS) by flow cytometry; type: cell-based, human; details: 1 μM, up to 24 h
Excerpt: The damage was more apparent with compound 8 and 6 (90% and 60% DNA damaged, respectively).

HL-60 cells [4] = assay: Loss of mitochondrial membrane potential (Rh-123 uptake); type: cell-based, human; details: 1 μM, 48 h
Procedure: Rhodamine-123 uptake into mitochondria is driven by mitochondrial Transmembrane potential (Ψmt) that allows the determination of cell population with active integrated mitochondrial functions. Loss of Ψmt leads to depolarization of mitochondrial membranes leading to collapse of mitochondrial functions ensuing cell death. The loss of Ψmt indicated the loss of mitochondrial integrity to couple electrons to energy production. HL-60 cells exposed to tested compounds for 48 h at 1 μM were analyzed for Rh-123 uptake by flow cytometry. The percentage of cells with low Rh-123 quantum fluorescence indicative of loss of Ψmt was calculated among the total acquired cell events (10,000). In the untreated control cells, more than 90% cells were functionally active with high Rh-123 signals (FIG. 9).

RPMI-8226 = assay: NCI SRB GI50 screen; type: cell-based; details: Homo sapiens, Leukemia, 48 hrs exposure, read-out: Growth Inhibition GI50 RPMI-8226
Procedure: 2-Anilino nicotinyl linked 2-amino benzothiazole conjugates of formula 9-12 were tested against fifty nine human cancer cell lines derived from nine cancer types (leukemia, non-small cell lung cancer, colon cancer, CNS cancer, melanoma, ovarian cancer, renal cancer, prostate cancer and breast cancer) as per NCI protocol. For each compound, dose response curves for individual cell lines were measured at a minimum of five concentrations at 10 fold dilutions. A protocol of 48 hrs continuous drug exposure was used, and a sulforhodamine B (SRB) protein assay was used to estimate cell viability or growth.

## O=C(Nc1nc2ccc([N+](=O)[O-])cc2s1)c1cccnc1Nc1cc(F)c(F)c(F)c1 [Compound 8, N3-(6-nitro-1,3-benzothiazol-2-yl)-2-[(3,4,5-trifluorophenyl)amino]-3-pyridine carboxamide]
HL-60 cells [1]
  apoptotic cells (Annexin V-FITC): around 70%
PC-3 cells
  nuclear morphology (DAPI): fragmentatation of nuclei due to apoptosis; also recorded: condensation and fragmentation of nuclei
HL-60
  nuclear morphology (DAPI): fragmentatation of nuclei due to apoptosis
[2]
  IC50: > 100 µM
MCF-7
  inhibition at 1 µM: 46%
DU145; 1 μM
  inhibition at 1 µM: 58%
DU145; 10 μM
  inhibition at 10 µM: 39%
SK-NS-H
  inhibition at 10 µM: 49%
HEP-2; 1 μM
  inhibition at 1 µM: 49%
HEP-2; 10 μM
  inhibition at 10 µM: 0%
Sw-620; 1 μM
  inhibition at 1 µM: 29%
Sw-620; 10 μM
  inhibition at 10 µM: 70%
OVCAR-5; 1 μM
  inhibition at 1 µM: 37%
OVCAR-5; 10 μM
  inhibition at 10 µM: 52%
502713
  inhibition at 10 µM: 80%
SiHa
  inhibition at 10 µM: 70%
PC-3
  inhibition at 1 µM: 41%
IGR-OV-1
  inhibition at 1 µM: 42%
IMR-32; 1 μM
  inhibition at 1 µM: 48%
IMR-32; 10 μM
  inhibition at 10 µM: 72%
HCT-15
  inhibition at 10 µM: 62%
A549; 1 μM
  inhibition at 1 µM: 27%
A549; 10 μM
  inhibition at 10 µM: 27%
PARP
  PARP cleavage (western blot): highest potential
HL-60 cells [3]
  DNA damaged (sub-G0 fraction): 90%
HL-60 cells [4]
  loss of mitochondrial membrane potential: 45%

## COc1ccc2nc(NC(=O)c3cccnc3Nc3cc(OC)c(OC)c(OC)c3)sc2c1 [Compound 12, N-3-(6-methoxy-1,3-benzothiazol-2-yl)-2-(3,4,5-trimethoxyanilino) nicotinamide]
RPMI-8226
  GI50: 9.94 µM
